Test results as given in the RepoRT retention time repository.

Assay: HILIC, Waters ACQUITY UPLC BEH HILIC, 150 × 2.1 mm, 1.7 µm, 40 °C, 0.6 mL/min, estimated dead time 0.55 min; A: water + 0.1% formic acid + 20 mM ammonium formate, pH 3.5; B: acetonitrile + 0.1% formic acid, pH 3; gradient (min/%B) 0/95 0.1/95 4.6/80 5.5/50 7.0/50 7.1/95 7.2/95 7.3/95 7.4/95 7.5/95 7.6/95 7.7/95 7.8/95 12.50/95 12.65/95
Settings: stereoisomer not certain

Row | LC retention time [min] | SMILES
1 | 2.02 | NC(=O)c1ccc[n+]([O-])c1 [Nicotinamide N-oxide]
2 | 1.59 | O=c1[nH]cnc2nc[nH]c12 [Hypoxanthine]
3 | 4.39 | CCCCC(=O)OC(CC(=O)[O-])C[N+](C)(C)C (stereo not drawn) [Valerylcarnitine]
4 | 5.03 | CC(=O)OC(CC(=O)[O-])C[N+](C)(C)C [L-Acetylcarnitine CAR(2:0)]
5 | 4.2 | CCCCCC=CC(=O)OC(CC(=O)[O-])C[N+](C)(C)C (stereo not drawn) [2-Octenoylcarnitine CAR(8:1)]
6 | 2.87 | CN1C(=O)CCC1c1ccc[n+]([O-])c1 (stereo not drawn) [Cotinine N-oxide]
7 | 1.16 | O=C(O)CNC(=O)c1ccccc1 [Hippuric acid]
8 | 0.673 | CC(=O)CC(c1ccccc1)c1c(O)c2ccccc2oc1=O (stereo not drawn) [Warfarin]
9 | 1.15 | O=c1[nH]c(=O)c2[nH]cnc2[nH]1 [Xanthine]
10 | 4.64 | CN(C)CC(=O)O [N,N-Dimethylglycine]
11 | 5.32 | C[N+](C)(C)CC(O)CC(=O)[O-] (stereo not drawn) [Carnitine]
12 | 4.4 | CC(=O)NCCCCN [N-Acetylputrescine]
13 | 3.76 | O=C(O)CCc1cnc[nH]1 [Imidazolepropionic acid]
14 | 0.71 | CC12CCC(=O)C=C1CCC1C2C(O)CC2(C)C1CCC2(O)C(=O)CO (stereo not drawn) [Cortisol]
15 | 5.92 | NC(N)=NCCCC(N)C(=O)O (stereo not drawn) [Arginine]
16 | 2.87 | CC(CCC(=O)NCC(=O)O)C1CCC2C3C(O)CC4CC(O)CCC4(C)C3CC(O)C12C (stereo not drawn) [Glycocholic Acid]
17 | 5.1 | C[N+](C)(C)CC(CC(=O)[O-])OC(=O)CCCC(=O)O (stereo not drawn) [Glutarylcarnitine CAR(5:0-DC)]
18 | 2.19 | Cn1cnc2nc(N)[nH]c(=O)c21 [7-Methylguanine]
19 | 3.03 | C=CC1CN2CCC1CC2C(O)c1ccnc2ccc(OC)cc12 (stereo not drawn) [Quinine]
20 | 3.82 | C[n+]1ccccc1 [N-Methylpyridinium]
21 | 6.15 | NC(Cc1cnc[nH]1)C(=O)O (stereo not drawn) [Histidine]
22 | 4.14 | CN1CCCC1c1cccnc1 (stereo not drawn) [Nicotine]
23 | 1.27 | CC(=O)Nc1ccn(C2OC(CO)C(O)C2O)c(=O)n1 (stereo not drawn) [N4-Acetylcytidine]

Row | LC retention time [min] | SMILES
24 | 4.54 | CC=C(C)C(=O)OC(CC(=O)[O-])C[N+](C)(C)C (stereo not drawn) [Tiglylcarnitine CAR(5:1)]
25 | 3.97 | C[N+](C)(C)CCO [Choline]
26 | 1.07 | NC(=O)c1cccnc1 [Niacinamide]
27 | 4.82 | CCC(=O)OC(CC(=O)[O-])C[N+](C)(C)C (stereo not drawn) [Propionylcarnitine CAR(3:0)]
28 | 4.18 | C[N+](C)(C)[O-] [Trimethylamine N-oxide]
29 | 4.85 | C[n+]1cccc(C(=O)[O-])c1 [Trigonelline]
30 | 5.4 | CC(O)CC(=O)OC(CC(=O)[O-])C[N+](C)(C)C (stereo not drawn) [3-Hydroxybutyrylcarnitine CAR(4:0-OH)]
31 | 6.1 | CC(=O)NCCCNCCCCNCCCNC(C)=O [N1,N12-Diacetylspermine]
32 | 2.61 | NCCS(=O)(=O)O [Taurine]
33 | 5.98 | NCCCCC(N)C(=O)O (stereo not drawn) [Lysine]
34 | 1.22 | CC(CCC(=O)NCC(=O)O)C1CCC2C3CCC4CC(O)CCC4(C)C3CCC12C (stereo not drawn) [Glycolithocholic acid]
35 | 3.42 | CN(C)C(=N)N=C(N)N [1,1-Dimethylbiguanide (Metformin)]
36 | 1.3 | O=C(O)C=Cc1cnc[nH]1 [Urocanic acid]
37 | 3.78 | NC(Cc1ccccc1)C(=O)O (stereo not drawn) [Phenylalanine]
38 | 4.57 | CC(N)C(=O)O (stereo not drawn) [Alanine]
39 | 4.91 | C[N+](C)(C)CCCC(=O)[O-] [4-Trimethylammoniobutanoic acid (deoxycarnitine)]
40 | 1.73 | Cn1c(N)nc2c(ncn2C2OC(CO)C(O)C2O)c1=O (stereo not drawn) [1-Methylguanosine]
41 | 4.39 | CC(C)CC(=O)OC(CC(=O)[O-])C[N+](C)(C)C (stereo not drawn) [Isovalerylcarnitine]
42 | 1.61 | O=c1[nH]cnc2c1ncn2C1OC(CO)C(O)C1O (stereo not drawn) [Inosine]
43 | 2.47 | CC(CCC(=O)NCCS(=O)(=O)O)C1CCC2C3C(O)CC4CC(O)CCC4(C)C3CC(O)C12C (stereo not drawn) [Taurocholic Acid]
44 | 4.48 | O=C(O)C1CCCCN1 (stereo not drawn) [Pipecolic acid]
45 | 0.732 | C=CC1=C(C)C(C=c2[nH]c(=Cc3[nH]c(C=C4NC(=O)C(C)=C4C=C)c(C)c3CCC(=O)O)c(CCC(=O)O)c2C)=NC1=O [Biliverdin]
46 | 4.39 | CCC(C)C(=O)OC(CC(=O)[O-])C[N+](C)(C)C (stereo not drawn) [2-methylbutyrylcarnitine]

Row | LC retention time [min] | SMILES
47 | 1.44 | Cn1cnc2c(ncn2C2OC(CO)C(O)C2O)c1=O (stereo not drawn) [N1-Methylinosine]
48 | 0.71 | CC(=O)Nc1ccc(O)cc1 [Acetaminophen]
49 | 4.91 | C[N+]1(C)CCCC1C(=O)[O-] (stereo not drawn) [Proline Betaine]
50 | 4.59 | CN1CCCCC1C(=O)O (stereo not drawn)
51 | 4.34 | CCCCCC(=O)OC(CC(=O)[O-])C[N+](C)(C)C (stereo not drawn) [Hexanoylcarnitine CAR(6:0)]
52 | 3.92 | CCCCCCCCCC(=O)OC(CC(=O)[O-])C[N+](C)(C)C (stereo not drawn) [Decanoylcarnitine CAR(10:0)]
53 | 5.49 | Cc1ncc(C[n+]2csc(CCO)c2C)c(N)n1 [Thiamine]
54 | 6.01 | NCCC(=O)NC(Cc1cnc[nH]1)C(=O)O (stereo not drawn) [Carnosine]
55 | 4.48 | CN1CCCC1C(=O)O (stereo not drawn) [N-methylproline]
56 | 4.46 | O=C(O)C1CCCN1 (stereo not drawn) [Proline]
57 | 1.5 | Cn1ccc(=O)c(C(N)=O)c1 [N1-methyl-4-pyridone-3-carboxamide]
58 | 3.51 | CC(=O)C[N+](C)(C)C [Trimethylaminoacetone]
59 | 3.78 | CCCCCCCCCCCCCC(=O)OC(CC(=O)[O-])C[N+](C)(C)C (stereo not drawn) [Tetradecanoylcarnitine CAR(14:0)]
60 | 4.69 | CC(C)C(=O)OC(CC(=O)[O-])C[N+](C)(C)C (stereo not drawn) [Isobutyrylcarnitine]
61 | 4.45 | C[N+](C)(C)CC(CC(=O)[O-])OC(=O)c1ccccc1 (stereo not drawn) [Benzoylcarnitine]
62 | 1.75 | CC(CCC(=O)NCCS(=O)(=O)O)C1CCC2C3C(O)CC4CC(O)CCC4(C)C3CCC12C (stereo not drawn) [Tauroursodeoxycholic acid]
63 | 5.74 | NC(=O)NCCCC(N)C(=O)O (stereo not drawn) [Citrulline]
64 | 5.06 | NC(=O)CCC(N)C(=O)O (stereo not drawn) [Glutamine]
65 | 6.09 | Cn1cncc1CC(N)C(=O)O (stereo not drawn) [3-Methylhistidine]
66 | 1.81 | CC(=O)N[C@@H]1C(O)O[C@H](CO)[C@@H](O)[C@@H]1O (stereo partly drawn) [N-Acetyl-D-mannosamine]
67 | 2.27 | OCC1OC(OC2(CO)OC(CO)C(O)C2O)C(O)C(O)C1O (stereo not drawn) [Sucrose]
68 | 3.91 | C[N+](C)(C)C(Cc1c[nH]c2ccccc12)C(=O)[O-] (stereo not drawn) [Tryptophan betaine]
69 | 5.44 | CC(=O)NCCCC[C@H](N)C(=O)O [N6-Acetyl-L-lysine]

Row | LC retention time [min] | SMILES
70 | 4.47 | C[N+](C)(C)CC(O)(CC(=O)[O-])C(=O)Cc1ccccc1 (stereo not drawn) [Phenylacetyl carnitine]
71 | 2.17 | Nc1nc2nc[nH]c2c(=O)[nH]1 [Guanine]
72 | 1.83 | CC(=O)NCCCN1CCCC1=O [N-Acetylisoputreanine-gamma-lactam]
73 | 3.78 | CCCCCCCCCCCCCCCC(=O)OC(CC(=O)[O-])C[N+](C)(C)C (stereo not drawn) [Palmitoylcarnitine CAR(C16:0)]
74 | 5.92 | NC(N)=NCCCCC(N)C(=O)O (stereo not drawn) [Homoarginine]
75 | 4.1 | Cn1cnc2c(ncn2C2OC(CO)C(O)C2O)c1=N (stereo not drawn) [1-Methyladenosine]
76 | 3.97 | CCCCCCCCCCCC(=O)OC(CC(=O)[O-])C[N+](C)(C)C (stereo not drawn) [Lauroylcarnitine CAR(12:0)]
77 | 6.16 | C[N+](C)(C)CCCCC(N)C(=O)[O-] [N6,N6,N6-Trimethyl-L-lysine]
78 | 6.1 | Cn1cncc1CC(NC(=O)CCN)C(=O)O (stereo not drawn) [Anserine]
79 | 0.69 | Nc1c(O)cccc1C(=O)O [3-Hydroxyanthranilic acid]
80 | 1.43 | CNc1ncnc2c1ncn2C1OC(CO)C(O)C1O (stereo not drawn) [N6-Methyladenosine]
81 | 1.13 | CC(C)(CO)C(O)C(=O)NCCC(=O)O (stereo not drawn) [Pantothenic acid]
82 | 5.99 | CC(=O)NCCCNCCCCN [N1-Acetylspermidine]
83 | 1.85 | CC(CCC(=O)NCC(=O)O)C1CCC2C3C(O)CC4CC(O)CCC4(C)C3CCC12C (stereo not drawn) [Glycoursodeoxycholic acid]
84 | 3.84 | NC(N)=NCCCC(=O)O [4-Guanidinobutanoic acid]
85 | 3.82 | NC(Cc1c[nH]c2ccccc12)C(=O)O (stereo not drawn) [Tryptophan]
86 | 4.28 | NC(CCCCn1c(C=O)ccc1CO)C(=O)O (stereo not drawn) [Pyralline]
87 | 4.93 | CC(=O)NCCCNCCCC(=O)O [N-Acetylisoputreanine]
88 | 1.25 | O=c1[nH]cc(C2OC(CO)C(O)C2O)c(=O)[nH]1 (stereo not drawn) [Pseudouridine]
89 | 4.13 | CCCCCCCC(=O)OC(CC(=O)[O-])C[N+](C)(C)C (stereo not drawn) [Octanoylcarnitine CAR(C8:0)]
90 | 3.2 | NC(Cc1ccc(OS(=O)(=O)O)cc1)C(=O)O (stereo not drawn) [O-Sulfotyrosine]

Row | SMILES | LC retention time [min]
91 | O=C1CCC(c2cccnc2)N1 (stereo not drawn) [Norcotinine] | 1.6
92 | c1cncc(C2CCCN2)c1 (stereo not drawn) [Nornicotine] | 4.22
93 | NCCc1ccc(O)c(OS(=O)(=O)O)c1 [Dopamine-3-O-sulfate] | 1.07
